Some test systems named below: 786-0; A498; A549; BT-549; COLO 205; HCT-15; HL-60; HOP-92; KM12; NCI-H226; NCI-H460; OVCAR-3; OVCAR-4; OVCAR-5; OVCAR-8; SF-268; SF-539; SK-MEL-5; UO-31; SNB-19.
Common to all, as to experiment: NCI tumour cell line growth inhibition, 48 h

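Each compound was tested at five concentrations against cells in 96-well plates for 48 hours. The concentration for 50% growth inhibition is given as GI50.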 Calls of active or inactive are those of the source. Rule as the data show it: active = GI50 up to about 1.1 µM and inactive = higher.

For `CN(/N=C(\C(=O)O)c1ccccc1)C1=NCCCCN1`, the GI50 in the test on 786-0 is > 100 µM (inactive); in the test on A498, > 100 µM (inactive); in the test with A549 it was > 100 µM (inactive); in the test on BT-549 it was > 100 µM (inactive); in the test on COLO 205 it was > 100 µM (inactive); in the test on HCT-15, above 100 µM. For the same compound, the GI50 in the test with HL-60, in the test on HOP-92, in the test on KM12, in the test with NCI-H226, with NCI-H460 and in the test with OVCAR-3 was > 100 µM (inactive) throughout. The GI50 with OVCAR-4, in the test on OVCAR-5, with OVCAR-8, with SF-268, in the test with SF-539 and with SK-MEL-5 was > 100 µM (inactive) in each case. In the test on UO-31, the GI50 was > 100 µM (inactive).

On to `CC(=O)O[C@@H](C1C[C@@H](C)[C@H]2[C@@](O)(O1)[C@H](O)[C@@]1(C)C3=CC[C@H]4C(C)(C)[C@@H](OC5OCC(O)C(O)C5O)CC[C@@]45C[C@@]35CC[C@]21C)C(C)(C)O` (some centres undefined), for which the GI50 with 786-0 is 26.1 µM (inactive); in the test on A498, 23.8 µM (inactive); in the test with A549 it was 30.6 µM (inactive); in the test with BT-549, 26.7 µM (inactive); in the test on COLO 205, 22 µM (inactive); with HCT-15, 28.4 µM. Moreover, the GI50 in the test with HL-60 is 1.56 µM (inactive); in the test with HOP-92, 23.8 µM (inactive); in the test with KM12 it was 22.5 µM (inactive); in the test on NCI-H226 it was 20.6 µM (inactive); in the test on NCI-H460, 18.2 µM (inactive); in the test on OVCAR-3, 20.7 µM (inactive). The GI50 in the test on OVCAR-4 was 33.9 µM (inactive); in the test on OVCAR-5, 28.6 µM (inactive); with OVCAR-8, 29.8 µM (inactive); in the test on SF-268, 34 µM (inactive); in the test on SF-539 it was 15.7 µM (inactive); with SK-MEL-5, 17.8 µM (inactive). Further, the results for the GI50 in the test on SNB-19 and in the test on UO-31 were 34.4 µM (inactive) and 30.2 µM (inactive), respectively.

For `O=C1CC2C(=O)c3ccccc3CC2c2ccccc21` (centres undefined), the GI50 is 92.3 µM (inactive) in the test on 786-0; 48.8 µM (inactive) in the test with A498; 36.3 µM (inactive) in the test on A549; 81.8 µM (inactive) in the test with BT-549; 24.3 µM in the test on HCT-15; 17.9 µM (inactive) in the test on HL-60. Besides, the GI50 in the test with HOP-92 is 16.4 µM (inactive); with KM12, 40.6 µM (inactive); in the test with NCI-H226, 36.6 µM (inactive); in the test on NCI-H460, 33 µM (inactive); with OVCAR-3, 26.7 µM (inactive); with OVCAR-4, 29.5 µM (inactive). Also, the GI50 in the test on OVCAR-5 is > 100 µM (inactive); in the test on OVCAR-8 it was 39.5 µM (inactive); in the test with SF-268 it was 56.8 µM (inactive); in the test with SF-539, 32.7 µM (inactive); with SNB-19 it was > 100 µM (inactive); in the test on UO-31, 12 µM (inactive).

For `CN(C)CC1CC/C(=C\c2ccc(O)cc2)C1=O` (centres undefined), the GI50 in the test on 786-0 is 2.16 µM (inactive); with A498 it was 9.35 µM (inactive); in the test with A549, 19 µM (inactive); with BT-549, 2.06 µM (inactive); with COLO 205, 1.87 µM (inactive); in the test on HCT-15, 2.21 µM. Further, the GI50 is 0.631 µM (active) with HL-60; 2.48 µM (inactive) with HOP-92; 4.18 µM (inactive) in the test on KM12; 10.4 µM (inactive) in the test on NCI-H226; 17.5 µM (inactive) in the test with NCI-H460; 3.67 µM (inactive) in the test with OVCAR-3. In addition, the GI50 in the test on OVCAR-4 is 7.38 µM (inactive); in the test with OVCAR-5, 17.4 µM (inactive); in the test on OVCAR-8, 4.6 µM (inactive); in the test with SF-268 it was 9.62 µM (inactive); in the test on SF-539 it was 7.8 µM (inactive); in the test on SK-MEL-5 it was 8.28 µM (inactive). The GI50 with SNB-19 is 16.9 µM (inactive); in the test on UO-31 it was 12.9 µM (inactive).

On to `C/C=C(\C)[C@@H](O)C(=O)O[C@@H]1CC(C(C)(C)O)[C@](C)(CCC(=O)OC)[C@H]2[C@H](OC(=O)[C@H](O)[C@H](C)CC)C[C@]3(C)C(=CC[C@H]3[C@H]3CO[C@H](C=C(C)C)C3)[C@]12C` (some centres undefined), for which the GI50 was 16 µM (inactive) with 786-0; 22.4 µM (inactive) in the test on A498; 20.9 µM (inactive) in the test with A549; 18 µM (inactive) in the test with BT-549; 19 µM in the test with HCT-15; 16.7 µM (inactive) in the test on HL-60. The GI50 is 23.3 µM (inactive) with HOP-92; 24.8 µM (inactive) in the test on KM12; 19.1 µM (inactive) with NCI-H226; 18.5 µM (inactive) in the test on NCI-H460; 20.1 µM (inactive) with OVCAR-3; 19.8 µM (inactive) with OVCAR-4. Moreover, the GI50 was 20.5 µM (inactive) in the test on OVCAR-5; 17.7 µM (inactive) in the test with OVCAR-8; 18.5 µM (inactive) with SF-268; 20.5 µM (inactive) with SF-539; 17.4 µM (inactive) with SK-MEL-5; 17.7 µM (inactive) in the test on UO-31.

As for `C#C/C=C/CC1OC(C(Br)CC)CC(Br)C2CC1O2` (centres undefined), the GI50 in the test on 786-0 is 7.69 µM (inactive); in the test on A498 it was > 100 µM (inactive); with A549 it was 68.7 µM (inactive); in the test on BT-549, 38.9 µM (inactive); in the test on COLO 205, 82 µM (inactive); in the test on HCT-15, 40.7 µM. Also, the GI50 in the test with HL-60 was 34.1 µM (inactive); with HOP-92, 22.8 µM (inactive); in the test with KM12, 60.5 µM (inactive); with NCI-H226 it was > 100 µM (inactive); in the test on NCI-H460 it was > 100 µM (inactive); with OVCAR-3, 38.5 µM (inactive). The GI50 in the test with OVCAR-4 is 37.8 µM (inactive); with OVCAR-5, > 100 µM (inactive); in the test with OVCAR-8 it was 61.1 µM (inactive); in the test with SF-268, > 100 µM (inactive); in the test with SF-539, > 100 µM (inactive); with SK-MEL-5, 89.3 µM (inactive). Further, the GI50 in the test on SNB-19 was > 100 µM (inactive).

Regarding `COC(=O)[C@]1(C)CCC[C@@]2(C)[C@@H]3C[C@@H]4[C@H]5C[C@@]3(CC[C@@H]21)C[C@@]45C`, the GI50 in the test with 786-0 was 16.1 µM (inactive); in the test on A498, 17.2 µM (inactive); in the test on A549, 14.1 µM (inactive); with BT-549 it was 16.5 µM (inactive); in the test with COLO 205, 20.5 µM (inactive); with HCT-15 it was 16.2 µM. The GI50 is 2.08 µM (inactive) in the test with HL-60; 15.2 µM (inactive) in the test with HOP-92; 15.8 µM (inactive) in the test on NCI-H226; 18.2 µM (inactive) with OVCAR-3; 13.8 µM (inactive) in the test with OVCAR-4; 18 µM (inactive) in the test on OVCAR-5. Further, the GI50 in the test with OVCAR-8 is 16.4 µM (inactive); in the test with SF-268, 17.9 µM (inactive); in the test on SF-539 it was 22.1 µM (inactive); in the test on SK-MEL-5, 17.2 µM (inactive); in the test on SNB-19, 13.9 µM (inactive); in the test with UO-31, 16 µM (inactive).

With `CCCCON1C[C@H](OC(C)=O)C(OC(C)=O)[C@H](OC(C)=O)C1` (some centres undefined), the GI50 is > 100 µM (inactive) in the test on 786-0; > 100 µM (inactive) in the test on A498; > 100 µM (inactive) in the test on A549; > 100 µM (inactive) in the test with BT-549; > 100 µM (inactive) in the test with COLO 205; above 100 µM with HCT-15. For the same compound, the GI50 in the test on HL-60, in the test on HOP-92, with KM12, with NCI-H226, in the test on NCI-H460 and in the test with OVCAR-3 was > 100 µM (inactive) in each case. Further, the GI50 in the test with OVCAR-4 was 7.14 µM (inactive); in the test with OVCAR-8, > 100 µM (inactive); in the test with SF-268, > 100 µM (inactive); in the test with SF-539 it was > 100 µM (inactive); in the test with SK-MEL-5 it was > 100 µM (inactive); in the test with SNB-19 it was > 100 µM (inactive). In the test with UO-31, the GI50 was > 100 µM (inactive).

For `O=[N+]([O-])c1cccc(Cl)c1Oc1ccc(S(=O)(=O)N/C(=N\O)Nc2ccc(Cl)cc2)cc1`, the GI50 in the test with 786-0 is 12.9 µM (inactive); with A498 it was 14.2 µM (inactive); with A549 it was 13.9 µM (inactive); in the test with BT-549, 14.5 µM (inactive); with COLO 205, 17.1 µM (inactive); in the test on HCT-15 it was 15 µM. Moreover, the GI50 was 4.76 µM (inactive) in the test on HOP-92; 15.9 µM (inactive) with KM12; 21.2 µM (inactive) in the test on NCI-H226; 12.8 µM (inactive) in the test on NCI-H460; 10.3 µM (inactive) with OVCAR-3; 7.1 µM (inactive) in the test with OVCAR-4. Besides, the GI50 in the test with OVCAR-5 is 17 µM (inactive); with OVCAR-8, 16.3 µM (inactive); with SF-268 it was 9.1 µM (inactive); in the test on SF-539 it was 14.6 µM (inactive); with SK-MEL-5 it was 11.9 µM (inactive); in the test on SNB-19, 16.2 µM (inactive). For the same compound, the GI50 with UO-31 was 9.1 µM (inactive).

In the case of `Cc1ccc(S(=O)(=O)N2CCCSCCN(S(=O)(=O)c3ccc(C)cc3)CCCSCC2)cc1`, the GI50 in the test with 786-0, in the test on A498, in the test on A549, with BT-549, with COLO 205 and with HL-60 was > 100 µM (inactive) each time. Further, the GI50 with HOP-92, with KM12, in the test with NCI-H226, with NCI-H460, with OVCAR-3 and with OVCAR-4 was > 100 µM (inactive) throughout. The GI50 with OVCAR-5, in the test with OVCAR-8, with SF-268, with SF-539, with SK-MEL-5 and in the test on SNB-19 was > 100 µM (inactive) in each case. Further, the GI50 in the test on UO-31 is 51.8 µM (inactive).
